Laboratory results reported in US9987296B2, “Compositions including anthocyanin or anthocyanidin for the prevention or treatment of Articular cartilage-associated conditions” (priority 2008, dated 2018).
Entries after “also recorded” stand apart in the source; their conditions may differ.

Experiments:
Type in all cases: cell-based
IGF-1 [1] = test: IGF-1 ELISA of culture media of human synovial explants; conditions: for IGF-1 protein release in media: high vs low glucose
Description: (§1) Synovial explants (n=6) were harvested from human donors undergoing total knee replacement. The specimens were trimmed of extraneous adipose tissue. In the two experiments, the synovial specimens were washed in low-glucose DMEM (1 g/L) for a few hours and then placed in the assigned treatment groups. In subsequent experiments the synovial specimens were washed in low-glucoses DMEM for 24 hours before treatment.
(§2) In all experiments (n=4), the specimens were cultured for 48 hours in serum-free ITS (Insulin, Transferrin, Selenium) media diluted with either high- or low-glucose DMEM. In addition, various anthocyanins were added to both the high- and low-glucose groups. Low-glucose alone acted as a control group. After the two experiments, the level of media was adjusted relative to the weight of the tissue.
(§3) Human IGF-1 protein secretion into the culture media was measured by ELISA (R & D Systems, Minneapolis, Minn.). Synovial culture media was centrifuged to remove any particulates. Controls and samples were added to ELISA wells which were pre-coated with a monoclonal antibody specific for IGF-1. Any IGF-1 present would be expected to be bound by the immobilized antibody. After washing away any unbound substances, an enzyme-linked polyclonal antibody specific for IGF-1 was added to the wells. Following a wash to remove any unbound antibody-enzyme reagent, a substrate solution was added to the wells. The media developed a color intensity in proportion to the amount of IGF-1 bound in the initial step. Optical density of each well was determined by using a microplate reader set to 450 nm. IGF-1 concentration in the sample was calculated by a standardized curve of IGF-I activity obtained by serial dilution of known protein concentrations.

IGF-1 [2] = test: IGF-1 gene expression in human synovial explants; conditions: for IGF-1 gene expression and production: synovial explants, together with glucose, overall conclusion
Description: Synovial explants (N=6) were harvested from human donors undergoing either uni-compartmental or total knee replacement. In all but the first experiment, the specimens were trimmed of extraneous adipose tissue and washed in low glucose DMEM (1 g/l). The specimens in the first experiment were not trimmed of excess adipose tissue and were washed in high-glucose DMEM (4.5 g/L).
In the first experiment (n=2), the specimens were cultured for 48 hours in 0.1% calf serum and either high- or low-glucose DMEM. In the second tow experiments (n=4), the specimens were cultured for 48 hours in serum-free ITS (Insulin, Transferrin, Selenium) media diluted with either high- or low-glucose DMEM. IGF-1 gene expression. Briefly, total RNA was extracted from synovial tissue using RNeasy Total RNA Kit (Qiagen, Inc., Santa Clarita, Calif.). Real-time quantitative RT-PCR was done using Taqman RT-PCR reagents (Applied Biosystems, Foster City, Calif.).
as §3, with “Expression of IGF-1 was normalized to that of the housekeeping gene GAPDH. IGF-1 ELISA. Human” for “Human”, “ELISA (RD” for “ELISA (R & D”, “antibody-enzyme reagent.” for “antibody-enzyme reagent,”, “The medial” for “The media”, “IGF-1” for “IGF-1 concentration in the sample was calculated by a standardized curve of IGF-I”
as §1, §2
Briefly, total RNA was extracted from synovial tissue using RNeasy Total RNA Kit (Qiagen Inc., Santa Clarita, Calif.). Real-time quantitative RT-PCR was done using ‘ragman RT-PCR. reagents (Applied Biosystems, Foster City, Calif.). Expression of IGF-1 was normalized to that of the housekeeping gene GAPDH. The results of IGF-1 gene expression are only presented if detectable levels of low glucose alone were present and able to serve as a control group for relative-fold change in expression.

IGF-1 [3] = test: IGF-1 production by ELISA, human cartilage explants; conditions: for IGF-1 production compared to IL-1 alone: human cartilage explants, 5 or 50 ug/mL (FIGS. 7, 8)
Description: Full thickness cartilage slices (20-25 mg) were dissected from the cartilage using a sterile scalpel blade. Four to five cartilage pieces that were approximately equal in size and weight were transferred to each well of a 24-well, flat bottom plate (Nuns, Denmark) containing DMEM:F12 (1:1) supplemented with antibiotics and 10% FCS and cultured for 24 hours. Subsequently the cartilage explants were cultured overnight in serum free media. The cartilage explants were treated with IL-β alone or with IL-β positive test agents for 72 hours in serum free media. Explants cultured in the absence of IL-β or test agents were used as controls. Additionally, the actions of kuromanin or cyanidin chloride were examined independently of IL-β exposure (5 ng/mL). Where appropriate, explants were exposed to test agents 15 minutes prior to the treatment with IL-β. Total glycosaminoglycan present in the culture supernatant was estimated as described below.
Human IGF-1 label in chondrocytes culture or cartilage explant media was quantified using a commercially available Human IGF-1 ELISA kit (R& D Systems) per manufacturer's directions.

[4] = tested on: Human articular chondrocytes; test: MTT assay; conditions: human articular chondrocytes in culture, 96 hours
Description: Chondrocytes were isolated from non-arthritic regions of adult human articular cartilage (N=3 donors) and expanded in tissue culture flasks in DMEM supplemented with 10% calf serum.
The following compounds were provided by Chromadex, Inc. and tested from 1 uM to 500 uM:
Human articular chondrocytes were seeded in 96-well culture trays at a density of 5000 cells/well and incubated with the selected concentration of the anthocyanin for 4 days. At the end of the 4 day period, fresh MTT (3(4,5-Dimethylthiazol-2-yl)-2,5-diphenyltetrazolium bromide) was made in PBS and filter sterilized. MTT (25 ul per well) was added to the cell culture and incubated for 5 hours in the CO2 incubator at 37° C. Yellow MIT is reduced to purple formazan in living cells. The supernatant from each well was removed, and 200 Ill of DMSO was added. A multi-channel pipette was used to dissolve crystals. The microplate was placed back into the incubator at 37° C. for 5 min. Formazan levels in each well were read using a spectrophotometer at 550 nm wavelength.

[5] = increasing glucose concentration, synovial tissue
[6] = FIG. 22, volume titrated to tissue weight, in high glucose

## O=C[C@H](O)[C@@H](O)[C@H](O)[C@H](O)CO [glucose]
IGF-1 [1]; FIG. 23, volume titrated to tissue weight, High Glucose alone (highest level)
  level of IGF-1 protein in media: above 2.00 ng/ml
IGF-1 [1]; FIG. 25, volume titrated to tissue weight, High Glucose alone
  level of IGF-1 protein in media: highest level of IGF-1 protein
IGF-1 [1]; FIG. 26, High Glucose alone
  level of IGF-1 protein in media: highest level of IGF-1 protein
IGF-1 [1]; High Glucose alone, across the experiments of Example 7
  IGF-I protein expression: most consistent increase in IGF-I protein expression
IGF-1 [1]; high (4.5 g/L) vs low (1 g/L) glucose, 48 hours, 6 donors
  IGF-1 levels in media, on average: more than doubled
IGF-1 [1]; high glucose, donor undergoing unicompartmental arthroplasty
  increase of IGF-1 in media, tissue that responded the most: 5 ×
IGF-1 [1]; four donors
  IGF-1 protein release in media: significant response
IGF-1 [1]; two donors
  IGF-1 protein release in media: no effect on IGF-1 protein release in media
IGF-1 [1]; [5]
  IGF-1 secretion: increase both IGF-1 gene expression and IGF-1 release; also recorded: increased IGF-1 secretion in synovial tissue, but in a donor dependent fashion
IGF-1 [2]; FIG. 24, High glucose alone
  IGF-1 gene expression relative to low glucose alone: over 4 fold
IGF-1 [2]; FIG. 27, High Glucose alone, grossly inflamed sample (RH)
  IGF-1 gene expression relative to low glucose alone: highest expression levels
IGF-1 [2]; FIG. 28, High Glucose alone
  increase in IGF-1 gene expression compared to low glucose alone: 12 fold
IGF-1 [2]; high (4.5 g/L) vs low (1 g/L) glucose, 48 hours, three donors
  increase of IGF-1 gene expression: up to 5 fold
IGF-1 [2]; [5]
  IGF-1 gene expression: increase both IGF-1 gene expression and IGF-1 release; also recorded: significantly increase; also recorded: consistently increased IGF-1 gene expression

## Oc1cc(O)c2cc(O)c(-c3ccc(O)c(O)c3)[o+]c2c1 [Cyanidin chloride]
IGF-1 [3]; explants, IL-1 with high dose 50 ug/mL
  IGF-1 production: no benefit was observed
IGF-1 [3]; explants, IL-1 with low dose 5 ug/mL
  IGF-1 production: restoration of control IGF-1 production
IGF-1 [3]; explants, high dose alone
  basal IGF-1 production: did not express basal IGF-1 production
IGF-1 [3]
  IGF-1 production compared to IL-1 alone: increased; also recorded: greater than IL-1 alone when treated with cyanidin alone or in combination with IL-1
[4]
  non-toxic concentration: 100 µM
IGF-1 [1]; FIG. 21, 7 ml of media regardless of sample weight, with High Glucose, listed as Cyanidin
  IGF-1 protein levels in media: highest IGF-1 protein levels
IGF-1 [1]; FIG. 21, 7 ml of media regardless of sample weight, with High Glucose, listed as cyanidin
  IGF-1 protein levels in media: highest levels of IGF-1 in media
IGF-1 [1]; FIG. 22, volume titrated to tissue weight, combined with low glucose, listed as Cyanidin
  IGF-1 protein levels in media: greatest effect
IGF-1 [1]; FIG. 22, volume titrated to tissue weight, combined with low glucose, listed as cyanidin
  IGF-1 protein levels in media: greatest production of IGF-1 protein levels
IGF-1 [1]; [6]
  IGF-1 protein levels in media: inhibitory
IGF-1 [1]; FIG. 26, lower anthocyanin concentration (5 mM), in the presence of low glucose
  level of IGF-1 protein in media: highest level of IGF-1 protein
IGF-1 [2]; FIG. 27, in the presence of high glucose
  IGF-1 gene expression relative to low glucose alone: highest expression levels
IGF-1 [2]
  IGF-1 gene expression and production: elevate IGF-1 gene expression and production

## OC[C@H]1O[C@@H](Oc2cc3c(O)cc(O)cc3[o+]c2-c2ccc(O)c(O)c2)[C@H](O)[C@@H](O)[C@@H]1O.[Cl-] [Kuromanin chloride]
IGF-1 [3]
  IGF-1 production compared to IL-1 alone: increased; also recorded: greater than IL-1 alone when treated with kuromanin alone or in combination with IL-1
[4]
  non-toxic concentration: 100 µM
IGF-1 [1]; FIG. 22, volume titrated to tissue weight, combined with low glucose, listed as Kuromanin
  IGF-1 protein levels in media: greatest effect
IGF-1 [1]; FIG. 22, volume titrated to tissue weight, combined with low glucose, listed as kuromanin
  IGF-1 protein levels in media: greatest production of IGF-1 protein levels
IGF-1 [1]; [6]
  IGF-1 protein levels in media: inhibitory
IGF-1 [2]; FIG. 24, in the presence of high glucose
  IGF-1 gene expression: inhibitory
IGF-1 [2]; FIG. 24, in the presence of low glucose
  IGF-1 gene expression relative to low glucose alone: 3 fold
IGF-1 [2]
  IGF-1 gene expression and production: elevate IGF-1 gene expression and production
